Measurements published in patent publication US20110223222A1, “Antiperspirant Compositions and Methods for Reducing Perspiration in Humans” (priority 2008, published 2011).

Experiments:
[1] = test system: axillae of healthy female volunteers; assay: Antiperspirant efficacy, FDA hotroom protocol, gravimetric sweat collection; type: in vivo, human; conditions: after four days of once-daily topical treatment, D4 vs D1 baseline
Procedure: The antiperspirant efficacy and safety of investigated compounds were tested pursuant to protocol prescribed by the Food and Drug Administration, […] (Guidelines for Effectiveness Testing of OTC Antiperspirant Drug Products, 2004). The clinical study further conformed to Normative Resolution 196/96, CN/MS. The clinical study was divided into three tests and conducted with among at least thirty healthy female volunteers per test. They were between the ages of 18 and 50. The study was single-center, randomized, controlled, double blind assessment of the safety, tolerability and antiperspirant efficacy of TRPM8 agonists when applied to the axillae of healthy female volunteers. Before proceeding with the testing, all the volunteers were submitted to a “rest period” of 17 days, according to the FDA protocol. During this period, a placebo control formulation with no antiperspirancy effect was applied twice a day to both axillae. Treatments were applied once daily for four consecutive days (numbered D1 to D4). On D1, the baseline perspiration rate was determined before the antiperspirant formulations were applied. All the volunteers remained under hotroom conditions for a 40-minute warm-up period, divided into 2 periods of 20 minutes each. The term “hotroom condition” is the controlled environment (temperatures at 38° C.±1° C., and relative humidity of 35%±5%) established by the FDA standard protocol to thermally induce volunteer's perspiration. Cotton absorbent pads (Sussex®) were preweighed (P1) and placed in both axillae of each volunteer. At the end of the warm-up period, the perspiration collected on the absorbent pads was again weighed (P2) and the perspiration rates were obtained through gravimetric measurements (according to the formula P2-P1). According to FDA protocol, volunteers must produce at least 100 milligrams of sweat from the placebo control axilla in a 20-minute collection in the controlled environment, and at least one volunteer must produce more than 600 milligrams of sweat. Commercial menthol (YSC), Mentha essential oil (YSC) and Eucalyptus essential oil (Inter-Link) were presented as components of the antiperspirant formulations as described in the Example 1. Both commercial Mentha and Eucalyptus essential oils, which present menthol and eucalyptol, respectively, as the major components, were submitted to a GC-MS analysis in order to determine the appropriate amount of essential oils to be used to manufacture the antiperspirant compositions. In each treatment group as listed below, one of the antiperspirant formulations were applied to one axilla of the volunteers. […] Safety and tolerance were measured by assessment of visual effects and dermal irritancy, and subjective assessment of tolerance. […]

[2] = test system: axilla odor of volunteers; assay: Evaluation of deodorant effect (sniff test); type: in vivo, human; conditions: at D4 vs D1, odor score 0-10 by two trained judges
Procedure: The volunteers were submitted to a “rest period” as described previously in Example 2. The odor was evaluated for the volunteers at D1 and at D4. At D1 the evaluation was made before the application of the test formulations, after the 20-minute warm-up period, and only the volunteers with starting values not less than 2 were included in the test. The odor evaluation scoring system was based on a range of axilla odor from no malodor (0), to moderate malodor (5), to extremely strong malodor (10). Two trained judges, familiar with the procedures and rating system, subjectively made the odor measurements of both axillae of each volunteer. The data correspond to the individual subject scores by the two trained judges and to the individual average.

## CC1CCC(C(C)C)C(O)C1 (centres unmarked) [menthol]
[1]; Group 1, one hour after application
  reduction in sweat production: 61.4%±23.1
[1]; Group 2, two hours after application
  reduction in sweat production: 63.7%±21.8
[1]; Group 3, four hours after application
  reduction in sweat production: 63.7%±21.8
[1]; Group 3, four hours after application, listed as menthol (YSC)
  reduction in sweat production: 75%±12.1
[2]
  improvement in axilla odor: 6.4%±25.3
